Assay: Whole blood stability assay
Type: in vitro ADME
Conditions: prodrug 50 nM, fresh pooled human whole blood, 37 degrees C.; read-out: t1/2 at 37 degrees C. in human whole blood
Method: Naltrexone prodrug stability was assessed using freshly collected whole blood (within 24-hr collection) from pooled human (n=3) donors. The incubation mixtures were prepared by spiking the prodrugs into pre-warmed (37 degrees C.) fresh whole blood to a final concentration of 50 nM. After gentle mixing, aliquots of incubation mixtures were immediately transferred into four different 96-deep well plates. One plate was used for each time point. The plates were incubated at 37 degrees C. at a shaking speed of 100 rpm. At time points 15, 30, 60 and 120 minutes, the reaction was quenched by addition of a mixture of water and acetonitrile containing the internal standard (naltrexone-D3). Time point 0 minutes was prepared separately by spiking the prodrugs into a quenched whole blood to obtain a final concentration of 50 nM. All samples were vortexed at a low speed for 15 min and centrifuged at 3900 rpm for 15 min. Supernatants were transferred into 96-well plates for LC-MS/MS analysis to monitor the depletion of the prodrugs and the formation of naltrexone.
The amount of remaining prodrug and released naltrexone for each sample was quantitated against the calibration curves prepared with the whole blood. The human whole blood was purchased from BioreclamationIVT (Westbury, N.Y., USA). Naltrexone-D3 was purchased from CERILLIANT® (Round Rock, Tex., USA). […] Where multiple runs have been completed, average values are reported.

`O=C(Cc1ccc2c(F)c(CC(=O)Oc3ccc4c5c3O[C@H]3C(=O)CC[C@@]6(O)[C@@H](C4)N(CC4CC4)CC[C@]536)ccc2c1F)Oc1ccc2c3c1O[C@H]1C(=O)CC[C@@]4(O)[C@@H](C2)N(CC2CC2)CC[C@]314` [Compound 5, bis((4R,4aS,7aR,12bS)-3-(cyclopropylmethyl)-4a-hydroxy-7-oxo-2,3,4,4a,5,6,7,7a-octahydro-1H-4,12-methanobenzofuro[3,2-e]isoquinolin-9-yl) 2,2′-(1,5-difluoronaphthalene-2,6-diyl)diacetate] and `O=C(Cc1ccc2c(Cl)c(CC(=O)Oc3ccc4c5c3O[C@H]3C(=O)CC[C@@]6(O)[C@@H](C4)N(CC4CC4)CC[C@]536)ccc2c1Cl)Oc1ccc2c3c1O[C@H]1C(=O)CC[C@@]4(O)[C@@H](C2)N(CC2CC2)CC[C@]314` [Compound 6, bis((4R,4aS,7aR,12bS)-3-(cyclopropylmethyl)-4a-hydroxy-7-oxo-2,3,4,4a,5,6,7,7a-octahydro-1H-4,12-methanobenzofuro[3,2-e]isoquinolin-9-yl) 2,2′-(1,5-dichloronaphthalene-2,6-diyl)diacetate] are within 1.5-fold of each other in half-life at 50 nM: 20.4 min for the first, 25.7 min for the second.

`Cc1c(CC(=O)Oc2ccc3c4c2O[C@H]2C(=O)CC[C@@]5(O)[C@@H](C3)N(CC3CC3)CC[C@]425)ccc2c(C)c(CC(=O)Oc3ccc4c5c3O[C@H]3C(=O)CC[C@@]6(O)[C@@H](C4)N(CC4CC4)CC[C@]536)ccc12` [Compound 7, bis((4R,4aS,7aR,12bS)-3-(cyclopropylmethyl)-4a-hydroxy-7-oxo-2,3,4,4a,5,6,7,7a-octahydro-1H-4,12-methanobenzofuro[3,2-e]isoquinolin-9-yl) 2,2′-(1,5-dimethylnaphthalene-2,6-diyl)diacetate] and `O=C(Cc1cccc2cccc(CC(=O)Oc3ccc4c5c3O[C@H]3C(=O)CC[C@@]6(O)[C@@H](C4)N(CC4CC4)CC[C@]536)c12)Oc1ccc2c3c1O[C@H]1C(=O)CC[C@@]4(O)[C@@H](C2)N(CC2CC2)CC[C@]314` [Compound 9, bis((4R,4aS,7aR,12bS)-3-(cyclopropylmethyl)-4a-hydroxy-7-oxo-2,3,4,4a,5,6,7,7a-octahydro-1H-4,12-methanobenzofuro[3,2-e]isoquinolin-9-yl) 2,2′-(naphthalene-1,8-diyl)diacetate] are within 1.5-fold of each other in half-life at 50 nM: 58.6 min for the first, 40.9 min for the second.

Compared with `O=C(CCc1ccc2cc(CCC(=O)Oc3ccc4c5c3O[C@H]3C(=O)CC[C@@]6(O)[C@@H](C4)N(CC4CC4)CC[C@]536)ccc2c1)Oc1ccc2c3c1O[C@H]1C(=O)CC[C@@]4(O)[C@@H](C2)N(CC2CC2)CC[C@]314` [Compound 8, bis((4R,4aS,7aR,12bS)-3-(cyclopropylmethyl)-4a-hydroxy-7-oxo-2,3,4,4a,5,6,7,7a-octahydro-1H-4,12-methanobenzofuro[3,2-e]isoquinolin-9-yl) 3,3′-(naphthalene-2,6-diyl)dipropionate], `O=C(Cc1ccc2ccc(CC(=O)Oc3ccc4c5c3O[C@H]3C(=O)CC[C@@]6(O)[C@@H](C4)N(CC4CC4)CC[C@]536)cc2c1)Oc1ccc2c3c1O[C@H]1C(=O)CC[C@@]4(O)[C@@H](C2)N(CC2CC2)CC[C@]314` [Compound 10, bis((4R,4aS,7aR,12bS)-3-(cyclopropylmethyl)-4a-hydroxy-7-oxo-2,3,4,4a,5,6,7,7a-octahydro-1H-4,12-methanobenzofuro[3,2-e]isoquinolin-9-yl) 2,2′-(naphthalene-2,7-diyl)diacetate] is 1.8-fold lower in half-life at 50 nM: 26.3 min for the first, 14.7 min for the second.

For `O=C(Oc1ccc2c3c1O[C@H]1C(=O)CC[C@@]4(O)[C@@H](C2)N(CC2CC2)CC[C@]314)c1ccc(C(=O)Oc2ccc3c4c2O[C@H]2C(=O)CC[C@@]5(O)[C@@H](C3)N(CC3CC3)CC[C@]425)cc1` [Reference Compound A, NTX-3-terephthaloyl-NTX, reference compound], the half-life at 50 nM was 54.7 min.

— patent US10799496B2, “Naphthylenyl compounds for long-acting injectable compositions and related methods” (priority 2018, dated 2020)
